{"source": "paper PMC9144402", "about": "“An Octopus-Derived Peptide with Antidiuretic Activity in Rats” (Marine Drugs, 2022)", "key": {"human OXTR [1]": {"molecular_target": "T1, human OXTR (Homo sapiens, UniProt P30559)", "T1 construct": "host or cells: ECV304", "T1 sequence (P30559 1-389)": "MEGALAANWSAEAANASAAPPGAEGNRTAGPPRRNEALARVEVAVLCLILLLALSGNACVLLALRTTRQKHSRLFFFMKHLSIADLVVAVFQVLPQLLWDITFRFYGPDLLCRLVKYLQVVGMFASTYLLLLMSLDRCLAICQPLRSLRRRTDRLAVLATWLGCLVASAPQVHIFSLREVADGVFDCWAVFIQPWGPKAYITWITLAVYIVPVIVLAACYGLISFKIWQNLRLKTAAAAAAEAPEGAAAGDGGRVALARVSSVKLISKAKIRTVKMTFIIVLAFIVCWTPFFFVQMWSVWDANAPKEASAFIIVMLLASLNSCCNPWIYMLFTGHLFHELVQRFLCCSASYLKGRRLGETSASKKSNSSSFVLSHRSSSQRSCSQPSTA", "assay": "OXTR functional assay, agonist effect (intracellular Ca^2+ increase, fluorimetry, transfected ECV304 cells)", "assay_type": "cell-based", "settings": "up to 50 μM, RT, % of control response (1 µM OXT), triplicate", "experimental": "(§1) Detailed information about the cells tested and other experimental conditions are described in Table 2. Briefly, cells were transfected with a recombinant expression vector capable of expressing each type of human OXT/AVP receptor. To evaluate the agonist effects on OXTR, V1aR, and V1bR, the intracellular Ca^2+ increase after treatment with OTP or CPT was measured by fluorimetry. […] For V2R receptors, cells were treated with peptides with or without the stimulant for 30 min. After that, cyclic AMP (cAMP) concentrations were measured by homogeneous time-resolved fluorescence (HTRF). The results were represented as the percent submaximal response achieved by the stimulant. All experiments were performed in triplicate. Data are presented as the mean ± standard error of the mean. The 50% effective concentration (EC50) and 50% inhibitory concentration (IC50) values were determined using a 4-parameter logistic fitting of a dose–response curve using SigmaPlot 10.0 (Systat Software, Palo Alto, CA, USA)."}, "human OXTR [2]": {"molecular_target": "T1, human OXTR", "assay": "OXTR functional assay, antagonist effect (30 nM OXT-induced intracellular Ca^2+, fluorimetry, ECV304 cells)", "assay_type": "cell-based", "settings": "50 μM; ECV304; stimulant 30 nM OXT; RT; fluorimetry; triplicate", "experimental": "as §1"}, "human V1aR [3]": {"molecular_target": "T2, human V1aR (Homo sapiens, UniProt P37288)", "T2 construct": "host or cells: CHO", "T2 sequence (P37288 whole entry)": "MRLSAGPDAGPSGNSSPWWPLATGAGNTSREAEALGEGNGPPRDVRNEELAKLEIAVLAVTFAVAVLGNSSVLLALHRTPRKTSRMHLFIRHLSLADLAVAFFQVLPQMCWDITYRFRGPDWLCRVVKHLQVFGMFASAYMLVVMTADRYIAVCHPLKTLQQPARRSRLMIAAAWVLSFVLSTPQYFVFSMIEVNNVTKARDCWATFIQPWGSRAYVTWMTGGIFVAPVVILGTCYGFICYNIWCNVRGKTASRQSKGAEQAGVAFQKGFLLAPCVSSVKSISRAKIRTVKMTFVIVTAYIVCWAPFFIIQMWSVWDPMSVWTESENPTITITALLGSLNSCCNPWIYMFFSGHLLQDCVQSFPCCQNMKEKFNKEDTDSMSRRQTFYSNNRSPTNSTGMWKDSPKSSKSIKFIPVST", "assay": "V1aR functional assay, agonist effect (intracellular Ca^2+ increase, fluorimetry, CHO cells)", "assay_type": "cell-based", "settings": "up to 50 μM, RT, % of control response (1 µM AVP), triplicate", "experimental": "as §1"}, "human V1aR [4]": {"molecular_target": "T2, human V1aR", "assay": "V1aR functional assay, antagonist effect (10 nM AVP-induced intracellular Ca^2+, fluorimetry, CHO cells)", "assay_type": "cell-based", "settings": "all concentrations tested; CHO; stimulant 10 nM AVP; RT; fluorimetry; triplicate", "experimental": "as §1"}, "human V1bR [5]": {"molecular_target": "T3, human V1bR (Homo sapiens, UniProt P47901)", "T3 construct": "host or cells: RBL", "T3 sequence (P47901 1-424)": "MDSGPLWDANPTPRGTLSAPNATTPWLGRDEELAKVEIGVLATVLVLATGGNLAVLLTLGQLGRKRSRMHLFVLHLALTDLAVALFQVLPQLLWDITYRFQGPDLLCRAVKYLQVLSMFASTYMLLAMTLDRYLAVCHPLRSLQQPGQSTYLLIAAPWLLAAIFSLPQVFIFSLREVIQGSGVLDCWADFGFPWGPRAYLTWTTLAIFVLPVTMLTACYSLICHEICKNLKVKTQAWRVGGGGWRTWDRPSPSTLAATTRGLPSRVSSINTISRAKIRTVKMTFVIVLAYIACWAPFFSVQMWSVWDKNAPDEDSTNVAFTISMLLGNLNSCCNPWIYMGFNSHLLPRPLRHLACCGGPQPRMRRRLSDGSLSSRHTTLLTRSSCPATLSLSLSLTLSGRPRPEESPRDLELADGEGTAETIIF", "assay": "V1bR functional assay, agonist effect (intracellular Ca^2+ increase, fluorimetry, RBL cells)", "assay_type": "cell-based", "settings": "up to 50 μM; RBL; RT; fluorimetry; % of control response (0.1 µM AVP); triplicate", "experimental": "as §1"}, "human V1bR [6]": {"molecular_target": "T3, human V1bR", "assay": "V1bR functional assay, antagonist effect (5 nM AVP-induced intracellular Ca^2+, fluorimetry, RBL cells)", "assay_type": "cell-based", "settings": "all concentrations tested, stimulant 5 nM AVP, RT, triplicate", "experimental": "as §1"}, "human V2R [7]": {"molecular_target": "T4, human V2R (Homo sapiens, UniProt P30518)", "T4 construct": "host or cells: CHO", "assay": "V2R functional assay, agonist effect (cAMP accumulation, HTRF, CHO cells)", "assay_type": "cell-based", "settings": "50 μM; CHO; 30 min RT; HTRF; % of control response (1 nM AVP); triplicate", "experimental": "as §1"}, "human V2R [8]": {"molecular_target": "T4, human V2R", "assay": "V2R functional assay, antagonist effect (0.03 nM AVP-induced cAMP, HTRF, CHO cells)", "assay_type": "cell-based", "settings": "all concentrations tested, stimulant 0.03 nM AVP, 30 min RT, triplicate", "experimental": "as §1"}, "O. ocellatus": {"tested_on": "O. ocellatus", "settings": "ref [21]; cited from earlier work", "description": "(§2) These genes produce active nonapeptides, which are named octopressin (OTP) and cephalotocin (CPT). […] OTP was also reported to evoke hyperactivity in chromatophore cells, ra ..."}, "Octopus vulgaris": {"tested_on": "Octopus vulgaris", "settings": "same species (Octopus vulgaris); ref [20]; cited from earlier work", "description": "as §2"}, "[9]": {"tested_on": "common cuttlefish (Sepia officinalis)", "settings": "ref [22]; cited from earlier work", "description": "as §2"}, "[10]": {"tested_on": "oviduct, aorta, and rectum", "settings": "in vitro preparations of oviduct, ref [18]; cited from earlier work", "description": "as §2"}}, "data": [{"substance": "CYWTSCPIG-NH2 (disulfide bond) (disulfide) [OTP, octopressin, natural OXT/AVP analog from Octopus vulgaris, synthesized by solid-phase peptide synthesis]", "values": [{"measurement": "OXTR-mediated intracellular Ca^2+ increase (agonist effect)", "setting": "human OXTR [1]", "value": "did not seem to induce"}, {"measurement": "inhibition rate of OXTR activation", "setting": "human OXTR [2]", "value": "approximately 30%"}, {"measurement": "V1aR-mediated intracellular Ca^2+ increase (agonist effect)", "setting": "human V1aR [3]", "value": "did not seem to induce"}, {"measurement": "antagonist effect against V1aR activation", "setting": "human V1aR [4]", "value": "could not inhibit"}, {"measurement": "V1bR-mediated intracellular Ca^2+ increase (agonist effect)", "setting": "human V1bR [5]", "value": "did not seem to induce"}, {"measurement": "antagonist effect against V1bR activation", "setting": "human V1bR [6]", "value": "could not inhibit"}, {"measurement": "V2R-mediated cAMP accumulation (agonist effect)", "setting": "human V2R [7]", "value": "< 30", "unit": "%"}, {"measurement": "antagonist effect against V2R activation", "setting": "human V2R [8]", "value": "could not inhibit"}, {"measurement": "hemolymph osmolality", "setting": "O. ocellatus", "value": "decreases hemolymph osmolality"}, {"measurement": "behavioral effect", "setting": "Octopus vulgaris", "value": "hyperactivity in chromatophore cells, rapid respiration, and jetting water from the siphon"}, {"measurement": "effect on long-term memory", "setting": "[9]", "value": "affect long-term memory"}, {"measurement": "effect on peripheral tissues", "setting": "[10]", "value": "induced contractions"}]}]}
